Experimental data reported in US20100304972A1, “HERBICIDE COMPOSITION” (priority 2007, published 2010).

Legend:
Type in all cases: in vivo
Sinapis arvensis = assay: Test Example 2: spray on plants from above ten days after sowing, herbicidal activity; conditions: sprayed on plants ten days after sowing, 21 days after treatment, scale 0-10
Experimental: (§1) The phytotoxicity to a crop is evaluated by indicating “harmless” in case that no or little phytotoxicity is recognized, “light” in case that light phytotoxicity is recognized, “medium” in case that medium phytotoxicity is recognized, or “severe” in case that severe phytotoxicity is recognized.
(§2) Field soil was filled in a plastic pot of 32 cm wide, 22 cm long and 8 cm high, and seeds of wheat (species: Norin No. 61), Sinapis arvensis, and Stellaria media were sowed thereon.
(§3) The plants were raised in a greenhouse and herbicidal activity and phytotoxicity were determined 21 days after the chemical treatment.

Stellaria media = assay: as above; conditions: sprayed on plants ten days after sowing, 21 days after treatment, scale 0-10
Chenopodim album = assay: as above; conditions: sprayed on plants ten days after sowing, 21 days after treatment, scale 0-10
[1] = tested on: wheat (species: Norin No. 61); assay: Test Example 2: spray on plants from above ten days after sowing, phytotoxicity to crop; conditions: 800 g/ha, sprayed on plants ten days after sowing, 21 days after treatment
Experimental: as §1, §2, §3

Cyperus esculentus = assay: Test Example 4: soil spray on day of planting tubers, herbicidal activity; conditions: 14 days after treatment, scale 0-10
Text: Field soil was filled in a plastic pot of 32 cm wide, 22 cm long and 8 cm high, and tubers of Cyperus esculentus were planted.
On the day of planting, each of an imazosulfuron suspension formulation (a 40% imazosulfuron-containing suspension formulation, trade name: Sibatite 40 manufactured by Sumitomo Chemical Co., Ltd.), a pendimethalin emulsifiable concentrate (a 30% pendimethalin-containing emulsifiable concentrate, trade name: Go-go-san 30 manufactured by BASF) and a mixed formulation prepared by mixing the imazosulfuron suspension formulation and the pendimethalin emulsifiable concentrate was diluted with water and uniformly sprayed on the soil with a small sprayer so that their amounts became those as shown in Table 4.
The plants were raised in a greenhouse and herbicidal activity was determined 14 days after the chemical treatment.

SMILES | Herbicidal activity Sa (Sinapis arvensis; 800 g/ha) | Herbicidal activity Sm (Stellaria media; 800 g/ha) | Herbicidal activity Ca (Chenopodim album; 800 g/ha) | Phytotoxicity Wheat [1] | Herbicidal activity (Cyperus esculentus; 50 g/ha) | Herbicidal activity (Cyperus esculentus; 200 g/ha) | Herbicidal activity Sa (Sinapis arvensis; 100 g/ha) | Herbicidal activity Sm (Stellaria media; 100 g/ha) | Herbicidal activity Ca (Chenopodim album; 100 g/ha) | Herbicidal activity (Cyperus esculentus; 25 g/ha)
CCC(CC)Nc1c([N+](=O)[O-])cc(C)c(C)c1[N+](=O)[O-] [Pendimethalin, N-(1-ethylpropyl)-3,4-dimethyl-2,6-dinitrobenzenamine] | 2 | 9 | 5 | harmless | 0 | 0 | – | – | – | –
COc1cc(OC)nc(NC(=O)NS(=O)(=O)c2c(Cl)nc3ccccn23)n1 [Imazosulfuron, 1-(2-chloroimidazo[1,2-a]pyridin-3-ylsulfonyl)-3-(4,6-dimethoxypyrimidin-2-yl)urea] | – | – | – | – | – | – | 10 | 10 | 3 | 4
